Legend:
Carbonic anhydrase 1 = Carbonic anhydrase 1 (Homo sapiens, UniProt P00915); assay: Hydratase and Esterase Activity Assays
Procedure: (§1) The effect of novel sulfonamides 28-33 on HCA isozyme activity was determined colorimetrically using CO2-hydration method of Wilbur and Anderson29 described previously [G l in et al., Biol. Pharm. Bull., 27:613-16]. Esterase activity was determined according to the method described by Verpoorte et al [Verpoorte et al., J. Biol. Chem., 242:4221-9].

Carbonic anhydrase 2 = Carbonic anhydrase 2 (Homo sapiens, UniProt P00918); assay: Hydratase and Esterase Activity Assays
Procedure: as §1

Sequence of Carbonic anhydrase 1 (P00915 whole entry): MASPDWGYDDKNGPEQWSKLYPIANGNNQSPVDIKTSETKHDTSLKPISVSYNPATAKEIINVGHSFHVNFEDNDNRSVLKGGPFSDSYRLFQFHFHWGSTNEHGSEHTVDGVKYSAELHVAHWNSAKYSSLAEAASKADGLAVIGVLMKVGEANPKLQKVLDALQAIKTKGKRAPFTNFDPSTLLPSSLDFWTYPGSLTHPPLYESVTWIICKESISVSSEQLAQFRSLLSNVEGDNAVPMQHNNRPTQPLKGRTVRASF

SMILES | Ki (Carbonic anhydrase 1) | Ki (Carbonic anhydrase 2) | IC50 (Carbonic anhydrase 2) | IC50 (Carbonic anhydrase 1)
CS(=O)(=O)NC1CCc2ccccc2C1 (stereo not given) [N-(1,2,3,4-tetrahydronaphthalene-2-yl)methanesulfonamide (31)] | 228 µM | 94 µM | 338 µM | 
CS(=O)(=O)NC1CCc2ccccc21 (stereo not given) [N-(Indane-1-yl)methanesulfonamide (29)] | 173 µM | 211 µM |  | 
COc1cc2c(cc1OC)CC(NS(C)(=O)=O)C2 [N-(5,6-dimethoxy-2,3-dihydro-1H-inden-2-yl)methanesulfonamide (32)] | 46 µM | 372 µM |  | 266 µM

More lines, now with the values ahead:

Ki (Carbonic anhydrase 1) | Ki (Carbonic anhydrase 2) | IC50 (Carbonic anhydrase 2) | IC50 (Carbonic anhydrase 1) | SMILES
185 µM | 112 µM |  |  | COc1cccc2c1CCCC2NS(C)(=O)=O (stereo not given) [N-(5-metoksi-1,2,3,4-tetrahydronaphthalene-1-yl)methanesulfonamide (30)]
52 µM | 215 µM |  | 487 µM | COc1cc2c(cc1OC)C(NS(C)(=O)=O)CC2 (stereo not given) [N-(5,6-dimethoxyindane-1-yl)methanesulfonamide (28)]
104 µM | 170 µM |  |  | CS(=O)(=O)NC1Cc2ccccc2C1 [N-(Indane-2-yl)methanesulfonamide (33)]

Source: BindingDB's records for doi:10.3109/14756366.2012.750311 (Atatürk University, 2014)
